Results taken from US9901525B2, “External use skin composition, containing Lentinula edodes-derived ergosterol” (Amorepacific Corporation, priority 2013, dated 2018).

Legend:
Melan-a cell [1] = assay: Melanin analysis of melan-a cell (melanin content); format: cell-based, mouse; conditions: melan-a cells (FIG. 3); for effect inhibiting the melanin production: 10 μM, corresponds to 4.44 ppm; for effect of inhibiting melanin production: 0.1, 1, 10 μM, 6 days; for skin whitening effect compared with positive controls (50 ppm arbutin, 50 ppm kojic acid): much less amount than the controls
Procedure: (§1) Melanin-forming cell (melanocyte) derived from C57BL/6J mouse, melan-a cell was cultured by using RPMI-1640 medium (Lonza, USA) with 10% FBS (Fetal Bovine Serum; bovine fetal serum) and 50 U/ml penicillin, 50 μg/ml streptomycin under the condition of 37° C., 10% CO2 and then used in the following experiment.
The Melan-a cell cultured by the method of the Reference Example 2 was seeded on 48 well plate so as to be 1.5×10^4 of the cell number per well and then, cultured for 24 hours. Then, a new medium containing various concentrations (0.1, 1, 10 μM) of 3β, 5α-dihydroxy-6β-methoxy-(22E, 24R)-ergosta-7,22-diene or 3β, 5α, 9α-trihydroxy-(22E, 24R)-ergosta-7,22-diene-6-one isolated from the Reference Example 1 was treated. At this time, in order to compare it, a medium containing 50 ppm of arbutin or 50 ppm of kojic acid was used as a positive control. The medium was treated for 6 days, and after three days, a new medium was exchanged. After 6 days, the cell was washed with DPBS and then, was added with 2N NaOH (10% DMSO) and dissolved at 60° C. for 1 hour. The cell lysate dissolved was moved into 96 well plates and then its absorbance (OD 475) was measured. The measured value was calculated as melanin content from the standard curve for the synthesized melanin, and the melanin content calculated was standardized by the total amount of the protein of each experimental group, and then it was compared with the control to estimate the efficiency. The results are represented in FIG. 3.
In addition, in order to compare the whitening effect of 3β, 5α-dihydroxy-6β-methoxy-(22E, 24R)-ergosta-7,22-diene and 3β, 5α, 9α-trihydroxy-(22E, 24R)-ergosta-7,22-diene-6-one with that of Lentinula edodes extract, the separate melan-a cell melanin assay experiment was performed with the same method as the above. At this time, 50 ppm of arbutin or 12.5, 25, 50, 100 ppm of ethanol extracts of Lentinula edodes obtained from the Reference Example 1 were used, and used by containing them in the medium for the cell culture. The results were represented in FIG. 4.

Melan-a cell [2] = assay: Cytotoxic test (MTT assay), survival rate of cells; format: cell-based, mouse; conditions: 50 ppm, melan-a cells (FIG. 2)
Procedure: as §1
Melan-a cell cultured by the method of the Reference Example 2 was seeded on 96 well plates so as to be 1.0×10^4 of cell number and then, cultured for 24 hours. […] Absorbance (OD 570) was determined by using microplate reader (Product Name: Synergy 2 (BioTek)), and a survival rate of the cell was determined by comparing it with the control. […]
The method similar to the Experimental Example 1 was used, except that 50 ppm arbutin, Lentinula edodes extracts (12.5, 25, 50, 100 ppm) were used as the sample treated. Absorbance (OD 570) was measured by using microplate reader (Product Name: Synergy 2 (BioTek)), and a survival rate of the cell was determined by comparing it with the control. […]

Compound: CO[C@@H]1C=C2[C@@H]3CC[C@H]([C@H](C)/C=C/[C@H](C)C(C)C)[C@@]3(C)CC[C@@H]2[C@@]2(C)CC[C@H](O)C[C@]12O [3β, 5α-dihydroxy-6β-methoxy-(22E, 24R)-ergosta-7,22-diene]
- effect inhibiting the melanin production (Melan-a cell [1]): remarkable effect inhibiting the melanin production
- effect of inhibiting melanin production (Melan-a cell [1]): exhibits the effect of inhibiting a melanin production
- skin whitening effect compared with positive controls (50 ppm arbutin, 50 ppm kojic acid) (Melan-a cell [1]): remarkably excellent skin whitening effect than albumin and kojic acid

Compound: CC(C)[C@@H](C)/C=C/[C@@H](C)[C@H]1CC[C@H]2C3=CC(=O)[C@@]4(O)C[C@@H](O)CC[C@]4(C)[C@@]3(O)CC[C@]12C [3β, 5α, 9α-trihydroxy-(22E, 24R)-ergosta-7,22-diene-6-one]
- effect inhibiting the melanin production (Melan-a cell [1]): remarkable effect inhibiting the melanin production
- effect of inhibiting melanin production (Melan-a cell [1]): exhibits the effect of inhibiting a melanin production
- skin whitening effect compared with positive controls (50 ppm arbutin, 50 ppm kojic acid) (Melan-a cell [1]): remarkably excellent skin whitening effect than albumin and kojic acid

Compound: OC[C@H]1O[C@@H](Oc2ccc(O)cc2)[C@H](O)[C@@H](O)[C@@H]1O [arbutin]
- effect on the cell growth (survival rate, MTT) (Melan-a cell [2]): did not affect the cell growth
